# Data from patent US20240400991A1, “IMMUNE CELLS WITH REDUCED ANDROGEN RECEPTOR (AR) LEVEL, AND METHODS OF THEIR USE TO ENHANCE ANTI-CANCER THERAPY” (Oregon Health & Science University, priority 2021, published 2024).
# Legend:
# [1] = test system: CD8 tumor infiltrating cells; test: Flow cytometry / intracellular cytokine staining of tumor infiltrating CD8 T cells in PPSM tumor bearing animals; type: in vivo, mouse; conditions: FIGS. 8I-8L
# Method: (subcutaneous) injection once every 14 days.
# Flow cytometry. Cells were incubated for 20 min on ice with e506 fixable viability dye and the following antibodies: […] (H57-597), CD4 (RM4-5), CD8 (53-6.7), CD44 (IM7), PD-1 (J43) and Thy1.1 (HIS51). Intracellular proteins Ki67 (SolA15), IFNγ (XMG1.2), TNFα (MP6-CT22), Nur77 (12.14) and Granzyme B (NGZB) were detected using the Fixation/Permeabilization Solution kit from BD Biosciences. All antibodies and viability dyes were purchased from eBioscience, Biolegend, or BD Biosciences. Data were collected with a Fortessa™ flow cytometer (BD Biosciences) and analyzed using FlowJo software (Tree Star). Unless noted otherwise in the figure legend, cells were gated through live/TCRβ+/CD8+ gates for analysis.
# In vitro activation and intracellular cytokine staining.
# OTI T cells in the tumor = test: Adoptive T cell therapy model: OT1 CD8 T cells in MCA-OVA tumor bearing RIP-mOVA animals
structure (smiles),measurement,setting,value
"CNC(=O)c1ccc(N2C(=S)N(c3ccc(C#N)c(C(F)(F)F)c3)C(=O)C2(C)C)cc1F [enzalutamide, 4-(3-(4-cyano-3-(trifluoromethyl)phenyl)-5,5-dimethyl-4-oxo-2-thioxoimidazolidin-I-yl)-2-fluoro-N-methyl benzamide]",polyfunctionality of tumor-associated CD8 T cells,[1],insufficient to improve the polyfunctionality
same,cytokine production in tumor specific T cells,OTI T cells in the tumor; FIGS. 10A-10C legend,increased cytokine production
same,IFNγ production of tumor-antigen specific CD8 T cells,"OTI T cells in the tumor; female mice, FIG. 10C",increased
same,IFNγ production of tumor-antigen specific CD8 T cells,"OTI T cells in the tumor; male mice, chemically castrated (degarelix), FIG. 10B",increased
